The text below walks through data of patent US20230210834A1, “RNA METHYLTRANSFERASE INHIBITOR, SCREENING METHOD THEREFOR, ANTI-CANCER AGENT EFFICACY ASSESSMENT MARKER, AND KIT FOR EFFECTIVELY PREDICTING FTSJ1 INHIBITOR” (National University Corporation Okayama University, priority 2019, published 2023).

One experiment concerns YAP/TAZ. The experiment in a line: Screening: YAP/TAZ activity reporter (8xGTIIC plasmid) assay in NUGC3 cells (luminescence % of DMSO). As to conditions: YAP/TAZ activity reporter (8×GTIIC), NUGC3 cells, luminescence relative to DMSO; concentration not given. It is filed as cell-based, human.
Experiment [1] relates to polyglutamine luciferase reporter. The experiment in a line: Screening: polyglutamine luciferase reporter assay in NUGC3 cells (luminescence % of DMSO). It counts as cell-based, human. As to conditions: polyglutamine luciferase reporter, NUGC3 cells, luminescence relative to DMSO; concentration not given.

Each structure is given as a SMILES string.

Take `Cc1cccc(S(=O)(=O)CC2CCC(C3CC3)CC2)c1C` (centres unmarked) [SA030]: in the experiment with YAP/TAZ, the “8×GTIIC” value is 73.56%. In experiment [1], this compound showed a Polyglutamine of 86.26%.

As to `O=S(=O)(CC1CCC(C2CC2)CC1)c1ccc2c(c1)CCCC2` (centres unmarked) [SA031], the “8×GTIIC” value in the experiment with YAP/TAZ amounted to 76.14%. This compound also showed a Polyglutamine in experiment [1] of 62.23%.

As to `Cc1cc(C)cc(S(=O)(=O)CC2CCC(C3CC3)CC2)c1` (centres unmarked) [SA032], the “8×GTIIC” value in the experiment on YAP/TAZ is recorded as 88.64%. In experiment [1], this compound had a Polyglutamine of 80.29%.

Regarding `O=S(=O)(CC1CCC(C2CC2)CC1)c1ccc(C(F)(F)F)cc1` (centres unmarked) [SA033], in the experiment with YAP/TAZ, the “8×GTIIC” value is 96.16%. Moreover, the Polyglutamine in experiment [1] was determined as 96.01%.

As for `Cc1ccccc1S(=O)(=O)CC1CCC(C2CC2)CC1` (centres unmarked) [SA034], in the experiment with YAP/TAZ, the “8×GTIIC” value is on record as 87.42%. For the same compound, the Polyglutamine in experiment [1] was determined as 77.96%.

Consider `Cc1ccc(S(=O)(=O)CC2CCC(C3CC3)CC2)c(C)c1` (centres unmarked) [SA035], for which the “8×GTIIC” value in the experiment on YAP/TAZ stood at 116.6%. In addition, the Polyglutamine in experiment [1] was 98.96%.

For `Cc1cccc(C)c1S(=O)(=O)CC1CCC(C2CC2)CC1` (centres unmarked) [SA036], the “8×GTIIC” value in the experiment with YAP/TAZ came to 57.59%. For the same compound, in experiment [1], the Polyglutamine came out at 71.57%.

Regarding `Cc1c(C)c(C)c(S(=O)(=O)CC2CCC(C3CC3)CC2)c(C)c1C` (centres unmarked) [SA037], the “8×GTIIC” value with YAP/TAZ was 35.53%. Further, the Polyglutamine in experiment [1] turned out to be 42.93%.

As to `O=S(=O)(CC1CCC(C2CC2)CC1)c1ccc2c(c1)CCCC2` (centres unmarked) [SA038], the “8×GTIIC” value in the experiment on YAP/TAZ is given as 94.4%. The compound also yielded a Polyglutamine in experiment [1] of 69.77%.

Turning to `CCCc1ccc(S(=O)(=O)CC2CCC(C3CC3)CC2)cc1` (centres unmarked) [SA039], the “8×GTIIC” value in the experiment with YAP/TAZ is listed as 56.65%. Besides, in experiment [1], the Polyglutamine is given as 97.44%.

`Cc1ccc(S(=O)(=O)C2CCC(CS(=O)(=O)c3ccccc3)CC2)cc1` (centres unmarked) [SA040]: in the experiment on YAP/TAZ, the “8×GTIIC” value was 51.54%. This compound also returned a Polyglutamine in experiment [1] of 44.87%.

Turning to `Cc1cccc(S(=O)(=O)CC2CCC(C3CC3)CC2)c1` (centres unmarked) [SA041], in the experiment with YAP/TAZ, the “8×GTIIC” value amounted to 87.17%. In experiment [1], the Polyglutamine stood at 88.82%.

On to `Cc1ccc(S(=O)(=O)CC2CCC(C3CC3)CC2)cc1C` (centres unmarked) [SA042], for which the “8×GTIIC” value in the experiment on YAP/TAZ was 100.9%. The compound also registered a Polyglutamine in experiment [1] of 94.62%.

As for `CCS(=O)(=O)C1CCC(CS(=O)(=O)c2ccc(C)cc2)CC1` (centres unmarked) [SA044], the “8×GTIIC” value in the experiment with YAP/TAZ was 63.33%. Moreover, in experiment [1], the Polyglutamine came to 87.25%.

With `CS(=O)(=O)C1CCC(CS(=O)(=O)c2ccc3c(c2)CCCC3)CC1` (centres unmarked) [SA046], the “8×GTIIC” value with YAP/TAZ was 83.81%. The Polyglutamine in experiment [1] is 75.23%.

For the compound `O=S(=O)(CC1CCC(S(=O)(=O)c2cccs2)CC1)c1ccc2c(c1)CCCC2` (centres unmarked) [SA047], the “8×GTIIC” value with YAP/TAZ is listed as 56.12%. For the same compound, the Polyglutamine in experiment [1] is listed as 47.4%.

On to `O=S(=O)(CC1CCC(S(=O)(=O)c2ccccc2)CC1)c1ccccc1` (centres unmarked) [SA049], for which the “8×GTIIC” value in the experiment with YAP/TAZ was 43.7%. This compound also showed a Polyglutamine in experiment [1] of 39.58%.

Regarding `Cc1ccc(S(=O)(=O)CC2CCC(C3CC3)CC2)c(C)c1` (centres unmarked) [SA050], the “8×GTIIC” value in the experiment on YAP/TAZ was 92.26%. Moreover, the Polyglutamine in experiment [1] turned out to be 60.42%.

As for `Cc1ccc(C)c(S(=O)(=O)CC2CCC(C3CC3)CC2)c1` (centres unmarked) [SA052], in the experiment with YAP/TAZ, the “8×GTIIC” value is listed as 54.65%. Moreover, the Polyglutamine in experiment [1] was 47.69%.

For the compound `Cc1cc(C(C)(C)C)cc(C)c1S(=O)(=O)CC1CCC(C2CC2)CC1` (centres unmarked) [SA053], the “8×GTIIC” value in the experiment with YAP/TAZ is 55.02%. The compound further gave a Polyglutamine in experiment [1] of 35.39%.

As to `Cc1cccc(S(=O)(=O)CC2CCC(C3CC3)CC2)c1` (centres unmarked) [SA054], the “8×GTIIC” value in the experiment on YAP/TAZ amounted to 83.34%. The compound also yielded a Polyglutamine in experiment [1] of 109.1%.

Take `Cc1ccc(S(=O)(=O)CC2CCC(C3CC3)CC2)cc1C` (centres unmarked) [SA055]: the “8×GTIIC” value in the experiment with YAP/TAZ amounted to 82.18%. This compound had a Polyglutamine in experiment [1] of 81.09%.

`Cc1ccc(S(=O)(=O)CC2CCC(C3CC3)CC2)c(C)c1` (centres unmarked) [SA057]: the “8×GTIIC” value in the experiment on YAP/TAZ was 73.76%. Besides, the Polyglutamine in experiment [1] is 79.6%.

Take `CC(C)c1ccc(S(=O)(=O)CC2CCC(C3CC3)CC2)cc1` (centres unmarked) [SA058]: the “8×GTIIC” value in the experiment on YAP/TAZ is 35.45%. For the same compound, in experiment [1], the Polyglutamine came to 76.81%.

`Cc1ccccc1S(=O)(=O)CC1CCC(S(C)(=O)=O)CC1` (centres unmarked) [SA059]: in the experiment on YAP/TAZ, the “8×GTIIC” value worked out at 88.99%. The Polyglutamine in experiment [1] came out at 100.9%.
